Data as given in patent US20230285570A1, “THERAPEUTICALLY USEFUL CURE-PRO MOLECULES FOR E3 LIGASE MEDIATED DEGRADATION OF PROTEINS, AND METHODS OF MAKING AND USING THEM” (CORNELL UNIVERSITY, priority 2020, published 2023).
Entries after “also recorded” stand apart in the source; their conditions may differ.

Assays:
Assay type in all cases: cell-based
[1] = system: caspase 3/7; test: Caspase-Glo 3/7 assay, Molm-13 cells
Experimental: (§1) Caspase-glo® assay (Promega) was conducted following the manufacturer's recommendations. Cells were seeded at a density of 5000 cells/well in a white 96 well plates (Corning, #3917) in a total volume of 100 μl with respective monomers, combinations of BRD ligands together with E3 ligase ligands or vehicle control treatment. After a 24 h incubation, 100 μl of the […] substrate was added per well and luminescence was read on a Spectramax M5 (Molecular Devices).
(§2) Molm-13 (FIG. 76A) or Namalwa (FIG. 76B) cells (5×10^4) were treated for 24 hours with the compounds solubilized in DMSO in white 96 well plates (10 nM-10 μM solubilized in DMSO). FIG. 76 is a bar graph depiction of fold increase of apoptosis assessed via caspase 3/7 activity using the Caspase-Glo assay (Promega) described above.

[2] = system: Molm-13 cells; test: CellTiter-Glo cell viability, Molm-13 cells
Experimental: CellTiter-Glo® 2.0 Cell Viability Assay (Promega) was carried out following the manufacturer's recommendations. Cells were seeded at a density of 1000 cells/well in a white 96 well plates (Corning, #3917) in a total volume of 100 μl with respective monomers, combinations of BRD ligands together with E3 ligase ligands or vehicle control treatment. After a 72 h incubation, 100 ul of the CellTiter-Glo® substrate was added per well and luminescence was read on a Spectramax M5 (Molecular Devices). Dose-response curves were generated using Graphpad Prism software.
Molm-13 cells (1×10^4) were treated for 24 (FIG. 77A) or 72 (FIG. 77B) hours were treated in white 96 well plates with the compounds (10 nM-10 μM solubilized in DMSO). After indicated times cell viability was assessed using the CellTiter-Glo® Luminescent Cell Viability Assay (Promega) and the signal detected on a SpectraMax M5 (Molecular Devices).

[3] = molecular target: T1, BRD4 (Homo sapiens, UniProt O60885); test: Summary of BRD4 degradation by CURE-PRO pairs, estimated from Western Blot or WES; design: endogenous in cells; conditions: Table 3, aryl-boronic acid BRD4 ligand + 8305
Summary of the method: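 Degradation read-out from immunoblot with ECL, or WES capillary electrophoresis with HRP detection, of RIPA lysates. Cells (Namalwa, Ramos, HeLa, MCF7, HT29 or HCT116) were exposed to DMSO-solubilized compounds for 24 h; a check mark marks 30% to 70% or higher degradation.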

[4] = molecular target: T1, BRD4; test: CURE-PRO-mediated BRD4 degradation in MCF7 cells, Western blot; design: endogenous in cells
Experimental: Namalwa, Ramosm HeLa, MCF7, or HT29 HCT116 cells (2.5-3×10^6) were treated for 24 hours with the indicated compounds solubilized in DMSO. The cells were washed in ice-cold PBS and were then lysed in RIPA lysis buffer (150 mM NaCl, 5 mM EDTA, 1% NP-40, 0.5% sodium deoxycholate, 0.1% SDS, 50 mM Tris, pH 8.0.) with Roche protease inhibitor complete cocktail and phosphatase inhibitors (10 mM sodium fluoride, 10 mM sodium pyrophosphate, 1 mM sodium orthovanadate and 20 mM β-glycerophosphate). The total protein concentrations were determined by Bradford Protein Assay (Pierce) and 10-20 μg of protein was loaded onto 4-15% Tris-Glycine gradient gels (Biorad). After standard gel electrophoresis, the separated proteins were transferred to PVDF membrane by wet transfer. The immunoblots were then blocked for 1 hour in 5% skim milk in TBST or 5% BSA in TBST, according to manufacturer's instructions, before an overnight incubation at 4° C. with indicated antibodies and membranes. Membranes were then incubated with the appropriate horseradish peroxidase-conjugated secondary antibodies (1:5,000 dilution) for 1 h at room temperature and the bands were visualized using the Clarity Max Western ECL Substrate (Biorad) and the ChemiDoc Imaging System (Biorad). Signal was detected with ECL Western Blotting Substrate (Pierce) and X-ray film processed with a Konica SRX-101 X-ray film processor or captured by Bio-Rad's Chemidoc Imaging system.
MCF7 cells (3×10^6) were treated for 24 h with the compounds solubilized in DMSO. Compounds were added at 100 nM-10 μM. Standardized protein samples were electrophoresed and imaged as described in the Immunoblotting section above. FIG. 69 depicts the CURE-PRO-mediated BRD4 degradation for the BRD-E9 monomer and VHL ligands 8305 combined in a 1:1 ratio, and FIG. 70 depicts the CURE-PRO-mediated BRD4 degradation for the BRD-E20 monomer and 8305.
MCF7 cells (3×10^6) were treated for 24 h with the compounds solubilized in DMSO. Compounds were added at 1 μM-10 μM. Standardized protein samples were electrophoresed and imaged as described in the Immunoblotting section above. FIG. 71 depicts the CURE-PRO-mediated BRD4 degradation for the BRD-E50 monomer and VHL ligands 8305 and 8304 combined in a 1:1 ratio.

[5] = molecular target: T1, BRD4; test: CURE-PRO-mediated BRD4 degradation in MCF7 cells, WES (ProteinSimple); design: endogenous in cells
Experimental: WES Simple analysis was performed on WES system (ProteinSimple-Biotechne) according to the manufacturer's instructions. Total protein concentrations of cell lysates were determined by the Pierce BCA kit (Thermo Fisher). 3 μL of 0.3 μg/μL of the protein lysate was loaded onto a 12- to 230-kDa WES assay plate (ProteinSimple) where 300 nL sample was withdrawn through a capillary, subjected to electrophoretic separation of proteins by size, and followed by the simultaneous, HRP-based detection of proteins using the Anti-Rabbit Detection Module (Proteinsimple: #DM-001). The electropherograms were checked then the automatic peak detection was manually corrected if it was required.
MCF7 cells (3×10^6) were treated for 4-24 hours continually (FIG. 72), or treated for 4 h, washed and incubated for a further 4-24 h with the compounds solubilized in DMSO. Compounds were added at 10 μM each. Cells were washed, lysed, and clarified by centrifugation. The total protein concentration was quantified by the BCA method (ThermoFisher Sciences). Standardized protein samples were electrophoresed and imaged as described in the WES Proteinsimple section above. FIG. 69 depicts the CURE-PRO-mediated BRD4 degradation for the BRD-E50 monomer, and VHL ligand, 8305.
MCF7 cells (3×10^6) were treated for 24 hours with the compounds solubilized in DMSO. CURE-PRO monomers were added at 10 μM each and the proteasomal inhibitors at 1 μM. Standardized protein samples were electrophoresed and imaged as described in the WES Proteinsimple section above. FIGS. 73 and 75 depicts the dependence of the proteasome for CURE-PRO-mediated BRD4 degradation.
MCF7 cells (3×10^6) were treated for 24 hours with the compounds solubilized in DMSO. CURE-PRO monomers were added at 10 μM. FIG. 74 depicts the CURE-PRO-mediated BRD4 degradation for the BRD-E50 monomer, and VHL ligand, 8305 combined in a 1:1 ratio after 24 h.

[6] = system: caspase 3/7; test: Caspase-Glo 3/7 assay, Namalwa cells; conditions: 24 h
Experimental: as §1
Namalwa cells (5×10^4) were treated for 24 hours with the compounds solubilized in DMSO. FIG. 57 is a bar graph depiction of fold increase of apoptosis assessed via caspase 3/7 activity using the Caspase-Glo assay (Promega) described above.
as §2

[7] = system: HCT116 cells; test: MTT toxicity of E3 ligase CURE-PRO monomers, HCT116 cells; conditions: monomer alone, HCT116, 10 nM-30 μM, 24 h
Experimental: CURE-PRO ligands for the E3 ubiquitin ligases were assessed for toxicity by MTT assays as described above. CURE-PRO monomers (10 nM-30 μM) were solubilized in DMSO and added in triplicate to cells (1×10^5 cells/well) seeded in 96 well plates on the previous day. HCT116 (FIG. 105A), MCF7 (FIG. 105B), and HT29 cells (FIG. 105C) were treated with the CURE-PRO monomers for 24 h.

[8] = single monomer alone, MCF7, 10 μM

| SMILES | caspase 3/7 activation ([1]; 1:1 with VHL ligand 8305, Molm-13, 24 h, 10 nM-10 μM) | caspase 3/7 activation ([1]; co-treated with VHL298, Molm-13, 24 h) | loss of cell viability versus monomers alone ([2]; co-dosed 1:1 with VHL ligand 8305, Molm-13, 24 h and 72 h, 10 nM-10 μM) | cell viability ([2]; co-treated with VHL298, Molm-13, 24 h and 72 h) | Degradation of BRD4, combination with VHL ligand 8305 [3] | BRD4 degradation ([4]; 1:1 with VHL ligand 8304, MCF7, 24 h, 1 μM-10 μM) | BRD4 degradation ([4]; 1:1 with VHL ligand 8305, MCF7, 24 h, 100 nM-10 μM) | BRD4 degradation ([5]; 1:1 with VHL ligand 8305, MCF7, 10 μM each, 4-24 h) | BRD4 degradation ([5]; co-incubated with VHL ligand 8304, MCF7, 10 μM each) | BRD4 degradation [5, 8] | BRD4 degradation after VHL298 pre-incubation ([5]; with 8305, 10 μM each, VHL298 preincubated at equimolar concentration, MCF7) | caspase 3/7 activation ([6]; 1:1 with VHL ligand 8305, Namalwa, 10 nM-10 μM) | caspase 3/7 activation ([6]; co-treated with VHL298, Namalwa) | loss of viability (MTT) [7] |
| --- | --- | --- | --- | --- | --- | --- | --- | --- | --- | --- | --- | --- | --- | --- |
| CCNC(=O)C[C@@H]1N=C(c2ccc(Cl)cc2)c2cc(B(O)O)ccc2-n2c(C)nnc21 [BRD-E50, ((4S)-6-(4-chlorophenyl)-4-(2-(ethylamino)-2-oxoethyl)-1-methyl-4H-benzo[f][1,2,4]triazolo[4,3-a][1,4]diazepin-8-yl)boronic acid] | demonstrates activation of caspase 3/7; also recorded: marked caspase activation | does not increase caspase activity | marked loss in cell viability when compared to monomer treatment alone; also recorded: a greater loss of cell viability | decreases levels of cell viability to similar levels of BRD-E50 treatment alone | √ (A black check mark indicates efficacy of 30% to 70% or higher protein degradation) | but not when VHL ligand 8304 is co-incubated; also recorded: no degradation is noted | there is degradation of BRD4; also recorded: marked BRD4 degradation | directs degradation of BRD4 as early as 4 h; also recorded: marked BRD4 degradation after 4 h | No degradation is noted | there is no degradation of BRD4 | attenuates CURE-PRO mediated BRD4 degradation; also recorded: No degradation is noted; also recorded: inhibited CURE-PRO mediated degradation; also recorded: inhibits the degradation of BRD4 | demonstrates activation of caspase 3/7; also recorded: marked caspase activation | does not increase caspase activity |  |
| Cc1ncsc1-c1ccc(CNC(=O)[C@@H]2C[C@@H](O)CN2C(=O)[C@@H](NC(=O)c2cccc(O)c2O)C(C)(C)C)cc1 [compound 8305, (2S,4R)-1-((S)-2-(2,3-dihydroxybenzamido)-3,3-dimethylbutanoyl)-4-hydroxy-N-(4-(4-methylthiazol-5-yl)benzyl)pyrrolidine-2-carboxamide] |  |  |  |  |  |  |  |  |  | there is no degradation of BRD4 |  |  |  | loss of viability only noted at higher concentrations (30 μM); also recorded: Toxicity at higher concentrations |
